# Read-outs that look alike come from different tables or passages of the source.
# Experiments:
# [1] = biological target: full length recombinant Pim-1 (Homo sapiens (Human), UniProt P11309); assay: Pim enzyme assay (HTRF, phosphorylation of biotinylated-BAD (S112) peptide), Pim-1; format: biochemical
# [2] = biological target: full length recombinant Pim-2 (Homo sapiens (Human), UniProt Q9P1W9); assay: Pim enzyme assay (HTRF, phosphorylation of biotinylated-BAD (S112) peptide), Pim-2; format: biochemical; conditions: Pim-2 enzyme assay; read-out: Pim2_IC50
# full length recombinant Pim-2, sequence (Q9P1W9 whole entry): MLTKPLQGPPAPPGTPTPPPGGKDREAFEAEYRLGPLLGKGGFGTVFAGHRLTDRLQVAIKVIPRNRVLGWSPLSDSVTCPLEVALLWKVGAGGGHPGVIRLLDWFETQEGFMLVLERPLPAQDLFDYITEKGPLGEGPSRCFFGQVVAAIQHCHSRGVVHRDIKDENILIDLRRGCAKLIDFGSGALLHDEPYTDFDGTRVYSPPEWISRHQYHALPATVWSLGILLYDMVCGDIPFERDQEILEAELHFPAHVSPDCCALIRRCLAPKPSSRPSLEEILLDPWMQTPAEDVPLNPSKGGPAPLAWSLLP
# [3] = biological target: full length recombinant Pim-3 (Homo sapiens (Human), UniProt Q86V86); assay: Pim enzyme assay (HTRF, phosphorylation of biotinylated-BAD (S112) peptide), Pim-3; format: biochemical; conditions: Pim-3 enzyme assay; read-out: Pim3 IC50
# Method in brief: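 Full-length recombinant Pim-3 phosphorylated biotinylated BAD (S112) peptide in 60 mM Hepes pH 7.0, 0.05% BSA, 2 mM DTT for 1 h 30 min at 22 °C. After EDTA stop, HTRF was read with Eu anti-phospho-BAD and streptavidin-APC. IC50 came from 4-parameter logistic fit of percent-of-control values.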
# [4] = tested on: Pim-1 stably transfected U2OS human osteogenic sarcoma line; assay: Pim cell assay U2OS (phospho-BAD normalized against total BAD), Pim-1 transfected; format: cell-based; conditions: Homo sapiens, U2OS
# [5] = tested on: Pim-2 stably transfected U2OS human osteogenic sarcoma line; assay: Pim cell assay U2OS (phospho-BAD normalized against total BAD), Pim-2 transfected; format: cell-based; conditions: Homo sapiens, read-out: U2OS Pim2_Cell_IC50
# Experimental: The cell lines used in the assay were generated by the stable transfection of either Pim-1 or Pim-2 into the U2OS human osteogenic sarcoma line. The assay for determination of the Pim activity in the engineered U2OS cell lines measures levels of phospho-BAD normalized against total BAD protein levels. It was conducted as follows:
# The adherent cells were dissociated from the flasks using non-enzymatic cell dissociation solution (Sigma #C5914). […] The cells were then incubated overnight at 37° C., 5% CO2.
# In addition to the 10-point dosing curve of the test compound, DMSO alone was run as the high control.
# This dilution in DMSO was then diluted again into cell growth medium. Aliquots (12 μL) of the compound diluted in growth medium were then transferred to the appropriate wells of the 96-well plates containing cells to a final DMSO concentration of 0.3%. The cell plates were then incubated with compound for 29 min at 37° C., 5% CO2.
# The cell plates containing lysis buffer were then immediately stored at −70° C.
# These prepared lysates were then assayed for phospho and total BAD according to the manufacturer's protocols (Meso Scale Diagnostics, Cat#K15103C-3 & #K15103D-3). The plates were read on the MSD Sector Imager 6000, and results were calculated according to the assay protocols ((% Phosphoprotein=((2×Phospho signal)/(Phospho signal+Total signal))×100)).
# [6] = Pim-1 enzyme assay, read-out: Pim_1_IC50
# [7] = read-out: U2OS Pim1_Cell_IC50, U2OS cells, Pim-1 transfected
# full length recombinant Pim-1, sequence (P11309 whole entry): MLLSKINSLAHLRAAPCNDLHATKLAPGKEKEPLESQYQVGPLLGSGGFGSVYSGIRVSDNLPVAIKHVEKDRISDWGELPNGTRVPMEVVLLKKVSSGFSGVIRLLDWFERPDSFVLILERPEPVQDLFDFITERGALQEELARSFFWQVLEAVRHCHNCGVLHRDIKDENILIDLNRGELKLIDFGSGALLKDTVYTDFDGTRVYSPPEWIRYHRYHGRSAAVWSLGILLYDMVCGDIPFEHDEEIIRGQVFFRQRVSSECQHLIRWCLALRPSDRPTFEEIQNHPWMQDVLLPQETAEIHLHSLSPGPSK
"IC50 [1, 6]",IC50 [2],IC50 [3],IC50 [1],Compound,IC50 ([4]; read-out: U2OS Pim1_Cell_IC50),"IC50 ([5]; U2OS cells, Pim-2 transfected)","IC50 [4, 7]",IC50 ([5]; U2OS)
45.8 nM,91.2 nM,30.5 nM,,"Nc1nnc(-c2ccc3[nH]cc(-c4csc(-n5ccccc5=O)n4)c3c2)s1 [Example 177, 1-(4-(5-(5-amino-1,3,4-thiadiazol-2-yl)-1H-indol-3-yl)-1,3-thiazol-2-yl)-2(1H)-pyridinone]",538 nM,> 31600 nM,,
34.8 nM,100 nM,9.47 nM,,"Cc1cn(-c2nc(-c3c[nH]c4ccc(-c5nnc(N)s5)cc34)cs2)cn1 [Example 170, 5-(3-(2-(4-methyl-1H-imidazol-1-yl)-1,3-thiazol-4-yl)-1H-indol-5-yl)-1,3,4-thiadiazol-2-amine]",876 nM,> 31600 nM,,
26.4 nM,23.8 nM,11.8 nM,,"Cc1nccn1-c1cccc(-c2c[nH]c3ccc(-c4nnc(N)s4)cc23)n1 [Example 169, 5-(3-(6-(2-methyl-1H-imidazol-1-yl)-2-pyridinyl)-1H-indol-5-yl)-1,3,4-thiadiazol-2-amine]",,> 31600 nM,1810 nM,
5.59 nM,12.3 nM,4.38 nM,,"Nc1nnc(-c2ccc3[nH]cc(-c4cncc(N5CCOCC5)n4)c3c2)s1 [Example 156, 5-(3-(6-(4-morpholinyl)-2-pyrazinyl)-1H-indol-5-yl)-1,3,4-thiadiazol-2-amine]",,1900 nM,163 nM,
24.8 nM,85.4 nM,15.1 nM,,"CC(C)Oc1cccc(-c2c[nH]c3ccc(-c4nnco4)cc23)n1 [Example 244, 3-(6-(1-methylethoxy)-2-pyridinyl)-5-(1,3,4-oxadiazol-2-yl)-1H-indole]",310 nM,12200 nM,,
,137 nM,9.89 nM,38.2 nM,"CNc1nnc(-c2ccc3[nH]cc(-c4cncc(N(C)C)n4)c3c2)s1 [Example 231, N,N-dimethyl-6-(5-(5-(methylamino)-1,3,4-thiadiazol-2-yl)-1H-indol-3-yl)-2-pyrazinamine]",377 nM,,,> 31600 nM
23.2 nM,44.1 nM,6.34 nM,,"COc1ccc(-c2c[nH]c3ccc(-c4nnc(N)s4)cc23)nc1OC [Example 168, 5-(3-(5,6-dimethoxy-2-pyridinyl)-1H-indol-5-yl)-1,3,4-thiadiazol-2-amine]",111 nM,> 3160 nM,,
17.9 nM,32.4 nM,4.93 nM,,"CC1(C)CNc2ncc(-c3c[nH]c4ccc(-c5nnc(N)s5)cc34)nc21 [Example 201, 5-(3-(7,7-dimethyl-6,7-dihydro-5H-pyrrolo[2,3-b]pyrazin-2-yl)-1H-indol-5-yl)-1,3,4-thiadiazol-2-amine]",387 nM,3830 nM,,
24.5 nM,53.7 nM,13.2 nM,,"CC(Oc1cncc(-c2c[nH]c3ccc(-c4nnc(N)s4)cc23)n1)C(F)(F)F (centres unmarked) [Example 211, 5-(3-(6-(2,2,2-trifluoro-1-methylethoxy)-2-pyrazinyl)-1H-indol-5-yl)-1,3,4-thiadiazol-2-amine]",192 nM,2800 nM,,

# Second part, the compound before the results:
Compound,"IC50 [1, 6]",IC50 [2],IC50 [3],IC50 [1],IC50 ([4]; read-out: U2OS Pim1_Cell_IC50),"IC50 ([5]; U2OS cells, Pim-2 transfected)","IC50 [4, 7]",IC50 ([5]; U2OS)
"Nc1nnc(-c2ccc3[nH]cc(-c4cncc(-c5ccccc5)n4)c3c2)o1 [Example 115, 5-(3-(6-phenyl-2-pyrazinyl)-1H-indol-5-yl)-1,3,4-oxadiazol-2-amine]",9.23 nM,14 nM,5.36 nM,,105 nM,> 31600 nM,,
"CC1CCCCN1c1cncc(-c2c[nH]c3ccc(-c4nnc(N)o4)cc23)n1 (centres unmarked) [Example 1, 5-(3-(6-(2-methylpiperidin-1-yl)pyrazin-2-yl)-1H-indol-5-yl)-1,3,4-oxadiazol-2-amine]",0.714 nM,2.06 nM,1.06 nM,,,435 nM,11.9 nM,
"Nc1nnc(-c2ccc3[nH]cc(-c4cncc(-c5cccc(F)c5)n4)c3c2)o1 [Example 119, 5-(3-(6-(3-fluorophenyl)-2-pyrazinyl)-1H-indol-5-yl)-1,3,4-oxadiazol-2-amine]",6.07 nM,10.7 nM,2.15 nM,,85 nM,> 31600 nM,,
"Nc1nnc(-c2ccc3[nH]cc(-c4nccc(-c5ccccc5)n4)c3c2)o1 [Example 122, 5-(3-(4-phenyl-2-pyrimidinyl)-1H-indol-5-yl)-1,3,4-oxadiazol-2-amine]",6.85 nM,3.87 nM,2.4 nM,,,831 nM,132 nM,
"CS(=O)(=O)c1nnc(-c2ccc3[nH]cc(-c4cccc(N5CCOCC5)n4)c3c2)s1 [Example 215, 5-(5-(methylsulfonyl)-1,3,4-thiadiazol-2-yl)-3-(6-(4-morpholinyl)-2-pyridinyl)-1H-indole]",208 nM,8780 nM,168 nM,,> 31600 nM,> 31600 nM,,
"Nc1nnc(-c2ccc3[nH]cc(-c4nccc(Nc5ccccc5)n4)c3c2)o1 [Example 108, 2-(5-(5-amino-1,3,4-oxadiazol-2-yl)-1H-indol-3-yl)-N-phenyl-4-pyrimidinamine]",9.41 nM,3.1 nM,2.07 nM,,711 nM,1410 nM,,
"Cc1cn(-c2cccc(-c3c[nH]c4ccc(-c5nnc(N)s5)cc34)n2)cn1 [Example 155, 5-(3-(6-(4-methyl-1H-imidazol-1-yl)-2-pyridinyl)-1H-indol-5-yl)-1,3-4-thiadiazol-2-amine]",4.42 nM,2.25 nM,0.425 nM,,,> 31600 nM,259 nM,
"CN(C)[C@H]1CCCN(c2ccnc(-c3c[nH]c4ccc(-c5nnc(N)o5)cc34)n2)C1 (stereo in doubt) [Example 107, 1-(2-(5-(5-amino-1,3,4-oxadiazol-2-yl)-1H-indol-3-yl)-4-pyrimidinyl)-N,N-dimethyl-3-piperidinamine]",5.98 nM,3.24 nM,3.74 nM,,3860 nM,> 31600 nM,,
"Nc1nnc(-c2ccc3[nH]cc(-c4ccccc4F)c3c2)s1 [Example 136, 5-(3-(2-fluorophenyl)-1H-indol-5-yl)-1,3,4-thiadiazol-2-amine]",67.3 nM,60 nM,30.9 nM,,,> 31600 nM,3410 nM,
"CN1CCN(c2cncc(-c3c[nH]c4ccc(-c5nnc(N)s5)cc34)n2)CC1=O [Example 18, 4-(6-(5-(5-amino-1,3,4-thiadiazol-2-yl)-1H-indol-3-yl)pyrazin-2-yl)-1-methylpiperazin-2-one]",15.8 nM,89.2 nM,7.41 nM,,> 31600 nM,> 31600 nM,,
"CC1CCCN1c1ccnc(-c2c[nH]c3ccc(-c4nnc(N)o4)cc23)n1 (centres unmarked) [Example 97, 5-(3-(4-(2-methyl-1-pyrrolidinyl)-2-pyrimidinyl)-1H-indol-5-yl)-1,3,4-oxadiazol-2-amine]",6.42 nM,1.7 nM,1.22 nM,,100 nM,315 nM,,
"Nc1nnc(-c2ccc3[nH]cc(-c4cncc(-c5cccc(Cl)c5)n4)c3c2)o1 [Example 120, 5-(3-(6-(3-chlorophenyl)-2-pyrazinyl)-1H-indol-5-yl)-1,3,4-oxadiazol-2-amine]",9.41 nM,22.9 nM,4.23 nM,,242 nM,> 31600 nM,,
"CNc1nnc(-c2ccc3[nH]cc(-c4cncc(N5CCCCC5)n4)c3c2)s1 [Example 227, N-methyl-5-(3-(6-(1-piperidinyl)-2-pyrazinyl)-1H-indol-5-yl)-1,3,4-thiadiazol-2-amine]",5.07 nM,41 nM,1.42 nM,,121 nM,9950 nM,,
"Nc1nnc(-c2ccc3[nH]cc(-c4cncc(NCC5CC5)n4)c3c2)o1 [Example 100, 6-(5-(5-amino-1,3,4-oxadiazol-2-yl)-1H-indol-3-yl)-N-(cyclopropylmethyl)-2-pyrazinamine]",1.16 nM,2.07 nM,0.668 nM,,41.7 nM,551 nM,,
"Nc1nnc(-c2ccc3[nH]cc(-c4cccc(N5CCOCC5)n4)c3c2)s1 [Example 24, 5-(3-(6-morpholinopyridin-2-yl)-1H-indol-5-yl)-1,3,4-thiadiazol-2-amine]",,58.7 nM,5.59 nM,,,7570 nM,232 nM,
